# Values quoted from earlier work, collected in patent publication US10568936B2, “Pharmaceutical composition for transmucosal delivery and methods for treating diabetes in a subject in need thereof” (Eastgate Pharmaceuticals Inc., priority 2014, dated 2020).
# Columns and labels:
# [1] = eutectic mixture with menthol
structure (smiles),measurement,setting,value
C[C@]12CC[C@H]3[C@@H](CCC4=CC(=O)CC[C@@]43C)[C@@H]1CC[C@@H]2O [testosterone],Increase in the flux of testosterone,eutectic mixture with menthol,2.8 fold
same,Further increase in skin flux,high concentration of menthol,eight times the base line
same,Increase in the solubility of testosterone in an aqueous ethanol vehicle,[1],2.8 fold
